In patent US10342758B2, “Cationic lipid” (Kyowa Hakko Kirin Co., Ltd., priority 2012, dated 2019):

Test: Average particle diameter of preparation (Zetasizer Nano ZS)
Format: physicochemical
Details: preparation with f7 siRNA
Method: The average particle diameter of each preparation (composition) was measured using a particle diameter measurement device (Zetasizer Nano ZS, manufactured by Malvern, hereafter the same).
The average particle diameter of each preparation (composition) was measured using a particle diameter measurement device.
Each sample was weighed and suspended in an aqueous solution containing hydrochloric acid and ethanol so that the ratio of Compound A-1/PEG-DMPE Na (manufactured by NOF Corporation) was 57.3/5.52 mmol/L, and then, the resulting mixture was repeatedly subjected to stirring using a vortex stirring mixer and heating, whereby a uniform suspension was obtained. This suspension was passed through a 0.2-μm polycarbonate membrane filter and thereafter passed through a 0.05-μm polycarbonate membrane filter at room temperature, whereby a dispersion liquid of particles (liposome) of Compound A-1/PEG-DMPE Na was obtained. The average particle diameter of the obtained liposome was measured using a particle diameter measuring apparatus to confirm that the average particle diameter was within the range from 30 nm to 100 nm. In the obtained dispersion liquid of liposome, the f7 siRNA solution was mixed at a ratio of the dispersion liquid of liposome to the fl siRNA solution of 3:1, and then, distilled water that was three times the amount was added thereto and mixed therewith, whereby a dispersion liquid of Compound A-1/PEG-DMPE Na/f7 siRNA complex was prepared.
The average particle diameter of the preparation (composition) was measured using a particle diameter measurement device.

[1] = compound/PEG-DMPE Na/DSPC/cholesterol=7.030/0.755/2.038/4.892 mmol/L, Example 54
[2] = liposome/siRNA complex encapsulated by lipid membrane, Examples 52, 53 / Comparative Example 3
[3] = compound/PEG-DMPE Na/DSPC/cholesterol, Examples 50, 51 / Comparative Example 2

For `CCCCC/C=C\C/C=C\CCCCCCCCN(CCCCCCCC/C=C\C/C=C\CCCCC)C(=O)OCCCN(C)C` [Compound A-1, 3-(Dimethylamino) propyl di((9Z,12Z)-octadeca-9,12-dienyl)carbamate], the “Particle diameter of Preparation obtained” value (“Particle diameter” for short) [1] was 113.0 nm and the “Particle diameter” value [2] was 95.9 nm.
In the case of `CCCCC/C=C\C/C=C\CCCCCCCCN(CCCCCCCC/C=C\C/C=C\CCCCC)C(=O)OCCN(C)C` [Compound A-5, 2-(Dimethylamino)ethyl di((9Z,12Z)-octadeca-9,12-dienyl)carbamate], the “Particle diameter” value [3] is reported as 139.2 nm and the “Particle diameter” value [2] is reported as 93.4 nm.
For `CCCCC/C=C\C/C=C\CCCCCCCCN(CCCCCCCC/C=C\C/C=C\CCCCC)C(=O)OCCC1CCCN1C` (centres unmarked) [Compound A-6, 2-(1-Methylpyrrolidin-2-yl)ethyl di((9Z,12Z)-octadeca-9,12-dienyl)carbamate], the “Particle diameter” value [2] was 93.6 nm.
For `CCCCC/C=C\C/C=C\CCCCCCCCN(CCCCCCCC/C=C\C/C=C\CCCCC)C(=O)OCCCN1CCCCC1` [Compound A-7, 3-(Piperidin-1-yl)propyl di((9Z,12Z)-octadeca-9,12-dienyl)carbamate], the “Particle diameter” value [1] was 123.3 nm and the “Particle diameter” value [2] was 94.6 nm.
For `CCCCC/C=C\C/C=C\CCCCCCCCN(CCCCCCCCCCCC)C(=O)OCCCN(C)C` [Compound A-9, 3-(Dimethylamino)propyl dodecyl((9Z,12Z)-octadeca-9,12-dienyl) carbamate], the “Particle diameter” value [3] was 116.4 nm.
For `CCCCC/C=C\C/C=C\CCCCCCCCN(CCCCCCCCCC)C(=O)OCCCN(C)C` [Compound A-10, 3-(Dimethylamino)propyl decyl((9Z,12Z)-octadeca-9,12-dienyl)carbamate], the “Particle diameter” value [3] was 148.7 nm, the “Particle diameter” value [1] was 156.2 nm and the “Particle diameter” value [2] was 123.1 nm.
For `CCCCC/C=C\C/C=C\CCCCCCCCN(CCCCCCCC)C(=O)OCCCN(C)C` [Compound A-11, 3-(Dimethylamino)propyl ((9Z,12Z)-octadeca-9,12-dienyl)(octyl)carbamate], the “Particle diameter” value [3] was 153.4 nm.
With `CCCCC/C=C\C/C=C\CCCCCCCCOCCN(CCCCCCCC/C=C\C/C=C\CCCCC)C(=O)OCCCN(C)C` [Compound A-12, 3-(Dimethylamino)propyl ((9Z,12Z)-octadeca-9,12-dienyl)(2-((9Z,12Z)-octadeca-9,12-dienyloxy)ethyl)carbamate] the “Particle diameter” value [3] was 133.0 nm and the “Particle diameter” value [2] was 111.5 nm.
For `CCCCC/C=C\C/C=C\CCCCCCCCN(CCCCCCCC/C=C\C/C=C\CCCCC)C(=O)OCCCCN(C)C` [Compound A-13, 4-(Dimethylamino)butyl di((9Z,12Z)-octadeca-9,12-dienyl)carbamate], the “Particle diameter” value [3] was 135.0 nm and the “Particle diameter” value [2] was 103.1 nm.
For `CCCCC/C=C\C/C=C\CCCCCCCCN(CCCCCCCC/C=C\C/C=C\CCCCC)C(=O)OCC1CCN(C)CC1` [Compound A-14, (1-Methylpiperidin-4-yl)methyl di((9Z,12Z)-octadeca-9,12-dien-1-yl)carbamate], the “Particle diameter” value [3] was 134.4 nm and the “Particle diameter” value [2] was 99.7 nm.
For `CCCCC/C=C\C/C=C\CCCCCCCCN(CCCCCCCC/C=C\C/C=C\CCCCC)C(=O)OCC1CCCN(C)C1` (centres unmarked) [Compound A-15], the “Particle diameter” value [3] was 124.0 nm and the “Particle diameter” value [2] was 98.4 nm.
With `CCCCC/C=C\C/C=C\CCCCCCCCN(CCCCCCCC/C=C\C/C=C\CCCCC)C(=O)OCC1CCCCN1C` (centres unmarked) [Compound A-16, (1-Methylpiperidin-2-yl)methyl di((9Z,12Z)-octadeca-9,12-dien-1-yl)carbamate] the “Particle diameter” value [3] was 133.4 nm and the “Particle diameter” value [2] was 105.5 nm.
With `CCCCCCCC/C=C\CCCCCCCCN(CCCCCCCC/C=C\CCCCCCCC)C(=O)OCCC1CCCN1C` (centres unmarked) [Compound A-17, 2-(1-Methylpyrrolidin-2-yl)ethyl di((Z)-octadec-9-enyl)carbamate] the “Particle diameter” value [3] was 129.1 nm and the “Particle diameter” value [2] was 101.4 nm.
With `CCCCCCCC/C=C\CCCCCCCCN(CCCCCCCC/C=C\CCCCCCCC)C(=O)OCC1CCCN(C)C1` (centres unmarked) [Compound A-18, (1-Methylpiperidin-3-yl)methyl di((Z)-octadec-9-enyl)carbamate] the “Particle diameter” value [3] was 138.4 nm and the “Particle diameter” value [2] was 112.0 nm.
For `CCCCC/C=C\C/C=C\CCCCCCCCCCN(CCCCCCCCCC/C=C\C/C=C\CCCCC)C(=O)OCCC1CCCN1C` (centres unmarked) [Compound A-19, 2-(1-Methylpyrrolidin-2-yl)ethyl di((11Z,14Z)-icosa-11,14-dienyl)carbamate], the “Particle diameter” value [3] was 140.0 nm and the “Particle diameter” value [2] was 91.4 nm.
With `CCCCC/C=C\C/C=C\CCCCCCCCCCN(CCCCCCCCCC/C=C\C/C=C\CCCCC)C(=O)OCC1CCCN(C)C1` (centres unmarked) [Compound A-20, (1-Methylpiperidin-3-yl)methyl di((11Z,14Z)-icosa-11,14-dienyl)carbamate] the “Particle diameter” value [3] was 145.1 nm and the “Particle diameter” value [2] was 95.7 nm.
For `CCCCC/C=C\C/C=C\CCCCCCCCN(CCCCCCCC/C=C\C/C=C\CCCCC)C(=O)OCC1CCCN1C` (centres unmarked) [Compound A-21, (1-Methylpyrrolidin-2-yl)methyl di((9Z,12Z)-octadeca-9,12-dien-1-yl)carbamate], the “Particle diameter” value [3] was 141.0 nm and the “Particle diameter” value [2] was 104.8 nm.
In the case of `CCCCC/C=C\C/C=C\CCCCCCCCN(CCCCCCCC/C=C\C/C=C\CCCCC)C(=O)OCCCN1CCCCCCC1` [Compound A-28], the “Particle diameter” value [3] is reported as 132.0 nm and the “Particle diameter” value [2] is reported as 111.3 nm.
For `CCCCC/C=C\C/C=C\CCCCCCCCOCCN(CCCCCCCC/C=C\C/C=C\CCCCC)C(=O)OCCCN1CCCCC1` [Compound A-29, 3-(Piperidin-1-yl)propyl ((9Z,12Z)-octadeca-9,12-dienyl)(2-((9Z,12Z)-octadeca-9,12-dienyloxy)ethyl)carbamate], the “Particle diameter” value [3] was 130.6 nm and the “Particle diameter” value [2] was 103.4 nm.
In the case of `CCCCC/C=C\C/C=C\CCCCCCCCOCCN(CCCCCCCC/C=C\C/C=C\CCCCC)C(=O)OCCC1CCCN1C` (centres unmarked) [Compound A-30], the “Particle diameter” value [3] is reported as 130.4 nm and the “Particle diameter” value [2] is reported as 106.2 nm.
With `CCCCC/C=C\C/C=C\CCCCCCCCOCCN(CCCCCCCC/C=C\C/C=C\CCCCC)C(=O)OCCCN1CCCCCC1` [Compound A-31, 3-(Azepan-1-yl)propyl ((9Z,12Z)-octadeca-9,12-dienyl) (2-((9Z,12Z)-octadeca-9,12-dienyloxy)ethyl)carbamate] the “Particle diameter” value [3] was 139.1 nm and the “Particle diameter” value [2] was 102.2 nm.
With `CCCCC/C=C\C/C=C\CCCCCCCCOCCN(CCCCCCCC/C=C\C/C=C\CCCCC)C(=O)OCC1CCCN(C)C1` (centres unmarked) [Compound A-32, (1-Methylpiperidin-3-yl)methyl ((9Z,12Z)-octadeca-9,12-dienyl)(2-((Z,12Z)-octadeca-9,12-dienyloxy)ethyl)carbamate] the “Particle diameter” value [3] was 124.6 nm and the “Particle diameter” value [2] was 101.4 nm.
In the case of `CCCCC/C=C\C/C=C\CCCCCCCCN(CCOCCCCCCCC/C=C\CCCCCCCC)C(=O)OCCC1CCCN1C` (centres unmarked) [Compound A-34, 2-(1-Methylpyrrolidin-2-yl)ethyl (2-((Z)-octadec-9-enyloxy)ethyl)((9Z,12Z)-octadeca-9,12-dienyl)carbamate], the “Particle diameter” value [3] is reported as 140.2 nm and the “Particle diameter” value [2] is reported as 92.6 nm.
